Results from paper PMC9549282, “Transcriptome analysis of megalurothrips usitatus (Bagnall) identifies olfactory genes with ligands binding characteristics of MusiOBP1 and MusiCSP1” (Frontiers in Physiology, 2022).

What was measured:
MusiCSP1 [1] = target: T1, MusiCSP1; test: fluorescent probe titration, Scatchard; type: binding, Megalurothrips usitatus; conditions: excitation 337 nm; labelled compound (fluorescent probe)
T1 construct: pET32a(+) BamHI/HindIII fusion (about 31 kDa) in E. coli BL21(DE3), Ni-NTA, His-tag fusion cut off with enterokinase

MusiCSP1 [2] = target: T1, MusiCSP1; test: 1-NPN fluorescence displacement; type: binding, Megalurothrips usitatus; conditions: 2 μM protein, 2 μM 1-NPN; ligand 2-16 μM; competitive with 1-NPN
Description: 1-NPN fluorescence displacement on MusiCSP1

Ki (MusiCSP1 [2]) [µM]	Structure (SMILES)	Kd (MusiCSP1 [1]) [µM]
59.6	CCCCCC(=O)CC [3-Octanone]	–
25.4	Cc1occc(=O)c1O [3-hydroxy-2-Methyl-4-pvrone]	–
36.5	CC(C)=CCC/C(C)=C/CO [Geraniol]	–
80	CC(C)=CCC/C(C)=C\CO [Nerol]	–
38.6	CC(C)=CCCC(C)CCO (stereo not drawn) [β-citronellol]	–

Further lines, the molecule ahead of its results:

Structure (SMILES)	Ki (MusiCSP1 [2]) [µM]	Kd (MusiCSP1 [1]) [µM]
c1ccc(Nc2cccc3ccccc23)cc1 [1-NPN]	–	8.36
O=CCCc1ccccc1 [3-Benzene propanal]	38.6	–
Cc1ccccc1C [O-Xylene]	31	–
COc1ccc(C=O)cc1 [P-Anisaldehyde]	42.8	–
C=C1CC/C=C(\C)CC[C@@H]2[C@@H]1CC2(C)C [β-Caryophyllene]	121	–
